According to paper PMC4268712, “Steroidal and non-steroidal third-generation aromatase inhibitors induce pain-like symptoms via TRPA1” (Nature Communications, 2014):

How the values were obtained:
[1] = molecular target: T1, transient receptor potential ankyrin 1 (TRPA1) (Homo sapiens, UniProt O75762); test: calcium imaging (and whole-cell patch clamp) in hTRPA1-HEK293 cells, blocked by HC-030031, absent in untransfected cells; assay type: cell-based
[2] = molecular target: T1, transient receptor potential ankyrin 1 (TRPA1); test: calcium imaging in HEK293 cells transfected with wild-type hTRPA1 ([…]); assay type: cell-based

T1 sequence (O75762 whole entry): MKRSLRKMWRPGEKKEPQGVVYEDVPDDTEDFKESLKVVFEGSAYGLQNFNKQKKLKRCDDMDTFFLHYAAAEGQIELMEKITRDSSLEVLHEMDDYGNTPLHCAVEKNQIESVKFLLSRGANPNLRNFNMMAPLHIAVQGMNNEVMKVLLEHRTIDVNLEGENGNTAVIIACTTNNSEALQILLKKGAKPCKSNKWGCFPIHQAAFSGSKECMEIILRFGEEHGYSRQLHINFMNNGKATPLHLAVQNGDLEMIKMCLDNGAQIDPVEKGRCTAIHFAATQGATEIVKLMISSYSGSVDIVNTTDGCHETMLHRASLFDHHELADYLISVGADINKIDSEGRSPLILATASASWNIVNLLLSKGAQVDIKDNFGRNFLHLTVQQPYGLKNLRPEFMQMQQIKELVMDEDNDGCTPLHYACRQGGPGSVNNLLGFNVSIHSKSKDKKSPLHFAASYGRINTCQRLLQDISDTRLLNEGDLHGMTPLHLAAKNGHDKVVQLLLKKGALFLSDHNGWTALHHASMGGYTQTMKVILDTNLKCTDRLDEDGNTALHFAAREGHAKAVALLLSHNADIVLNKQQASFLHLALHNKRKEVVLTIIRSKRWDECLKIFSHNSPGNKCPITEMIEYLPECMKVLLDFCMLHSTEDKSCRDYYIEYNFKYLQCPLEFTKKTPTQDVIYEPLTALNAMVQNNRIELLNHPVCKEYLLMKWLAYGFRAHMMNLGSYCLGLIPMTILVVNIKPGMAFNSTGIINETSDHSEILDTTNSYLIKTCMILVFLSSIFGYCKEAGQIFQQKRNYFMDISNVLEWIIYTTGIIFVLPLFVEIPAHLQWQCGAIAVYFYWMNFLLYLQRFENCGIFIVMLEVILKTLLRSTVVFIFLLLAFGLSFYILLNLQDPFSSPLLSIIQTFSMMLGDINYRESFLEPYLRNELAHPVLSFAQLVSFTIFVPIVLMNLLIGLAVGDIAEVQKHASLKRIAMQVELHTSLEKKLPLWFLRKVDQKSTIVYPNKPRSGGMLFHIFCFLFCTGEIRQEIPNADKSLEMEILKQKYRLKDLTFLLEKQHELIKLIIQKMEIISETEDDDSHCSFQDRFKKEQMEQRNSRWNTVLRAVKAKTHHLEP

SMILES	EC50 [1] [µM]	calcium imaging in HEK293 cells transfected with wild-type hTRPA1 (100 μM) [2]
CC(C)(C#N)c1cc(Cn2cncn2)cc(C(C)(C)C#N)c1 [ANA, anastrozole]	134	
C=C1C[C@@H]2[C@H](CC[C@]3(C)C(=O)CC[C@@H]23)[C@@]2(C)C=CC(=O)C=C12 [EXE, exemestane]	58	
CC1CCC(C(C)C)C(O)C1 (stereo not shown) [menthol]		HEK293 cells transfected with the cDNA codifying for wild-type hTRPA1 (WT) respond to all the drugs
N#Cc1ccc(C(c2ccc(C#N)cc2)n2cncn2)cc1 [LTZ, letrozole]	69	
